The nature of series [1]: Stability of anhydrous treprostinil at 25° C. (6-month stability report, lot 01A07002). In kind it is physicochemical. As for the experimental part: II. Stability of Anhydrous Form Versus Monohydrate Form of TREPROSTINIL at 25° C.
1. Stability Report (6-month) for anhydrous lot #01A07002
A 3.34-kg sample of treprostinil diethanolamine salt was dissolved in 40 L of sterile water, 60 L of ethyl acetate and 3.2 L of 3 M HCl were added and the mixture stirred. The layers were separated and the aqueous layer was extracted thrice with 20-L portions of ethyl acetate. The four organic layers were combined, the organic solution washed twice with 20-L portions of sterile water, once with 20 L of brine and dried over 2.97 kg of anhydrous sodium sulfate. The mixture was filtered and the filtrate was concentrated to yield treprostinil as a gummy solid. This solid was transferred to glass drying trays and let air-dry for 93 hours. This solid was then dissolved in 23.4 kg of ethanol, warmed to 48° C. and treated with 23.4 kg of warm (40-50° C.) sterile water. The solution was stirred and then stirring was stopped to allow the treprostinil to slowly crystallize. The resulting white solid was collected by filtration in an Aurora filter, washed with 45 L of a cold (6° C.) 20% ethanol in sterile water solution, the filter moved to a Hepa-filtered Finishing Room and the solid dried under house vacuum for 22.3 hours. The solid was transferred to drying trays and further dried in a vacuum oven at 55 deg. C and 0.26 Torr for 22.7 hours to give 2.63 kg (96.3%) of anhydrous treprostinil (Lot #01A07002) as a white solid.

Series [2] in a line: Stability tests of treprostinil forms (dimer formation, room temperature stability). The class given is physicochemical. As for the experimental part:
The anhydrous form of treprostinil (TREPROSTINIL) has been previously described, e.g., in J. Org. Chem. 2004, 69, 1890-1902. […] A larger amount of dimers can form at higher temperatures. However, dimer formation is negligible at 5° C. Therefore, anhydrous treprostinil must be refrigerated for storage and transport. In the past, treprostinil had to be refrigerated and shipped with ice packs to maintain low (2° C.-8° C.) temperatures.
The instability of anhydrous treprostinil also imposes challenges to its preparation. To obtain anhydrous treprostinil, wet compound from recrystallization was heated in a vacuum. […] Therefore, heating temperature must be carefully controlled to avoid high heat when drying treprostinil in order to remove all water, otherwise these two dimer impurities will be produced.
Data has been generated to characterize a monohydrate form of treprostinil. […] Treprostinil monohydrate can be stored and shipped with no special handling.

SMILES strings stand for the structures.

On to `CCCCC[C@H](O)CC[C@@H]1[C@H]2Cc3cccc(OCC(=O)O)c3C[C@H]2C[C@H]1O` [Lot No. 01 A07002 (Anhydrous), 2-((1R,2R,3aS,9aS)-2-hydroxy-1-((S)-3-hydroxyoctyl)-2,3,3a,4,9,9a-hexahydro-1H-cyclopenta[b]naphthalen-5-yloxy)acetic acid], for which, in series [1] (3 months), the “HPLC Assay 750W93” value was found to be 1.2, the “HPLC Assay 751W93” value came out at 0.9, the “HPLC Assay Treprostinil” value is recorded as 98.1% and the Physical examination entry was “White powder”. Moreover, the “Water (Karl Fischer)” value in series [1] (3 months) amounted to 0.7%. Further, in series [1] (6 months), the “HPLC Assay 750W93” value amounted to 1.5, the “HPLC Assay 751W93” value was determined as 1.1, the “HPLC Assay Treprostinil” value turned out to be 95.4% and the Physical examination result is recorded as “White powder”. Besides, the “Water (Karl Fischer)” value in series [1] (6 months) is reported as 0.8%. In addition, in series [1] (Initial), the “HPLC Assay 750W93” value turned out to be 0.2, the “HPLC Assay 751W93” value came to 0.3, the “HPLC Assay Treprostinil” value turned out to be 99.6% and the Physical examination result is “White powder”. The “Water (Karl Fischer)” value in series [1] (Initial) is listed as 0.4%. The Dimer formation result in series [2] (5° C.) is listed as “negligible”. For the same compound, the “Stability (stability tests)” value in series [2] (25° C., dimers formed upon standing) was “not stable”. Besides, in series [2] (solid heated above 50° C. in vacuum drying), the “Dimer formation on heating the solid” value is given as “two dimers of treprostinil formed”.
